Measurements as given in ChEMBL document CHEMBL6109047, “Synthesis strategies and anti-parasitic evaluation of novel compounds for chagas disease: Advancing drug discovery through structure-activity relationships” (Eur J Med Chem, 2025).

Experiments:
[1] = tested on: Trypanosoma cruzi; test: Antitrypanosomal activity against bloodstream trypomastigote form of Trypanosoma cruzi Y assessed as parasite growth inhibition incubated for 24 hrs by light microscopic analysis; type: functional, organism-based
[2] = tested on: Trypanosoma cruzi; test: Antitrypanosomal activity against Trypanosoma cruzi Y strain trypomastigotes Vero cells assessed as inhibition of parasite growth incubated for 24 hrs by Neubauer chamber based analysis; type: functional, organism-based
[3] = tested on: Trypanosoma cruzi; test: Antitrypanosomal activity against Trypanosoma cruzi Tulahuen amastigotes expressing Escherichia coli beta-galactosidase infected in LLC-MK2 cells incubated for 48 hrs; type: functional, organism-based; settings: LLC-MK2, 48 h
[4] = tested on: Trypanosoma cruzi; test: Antitrypanosomal activity against bloodstream trypomastigote form of Trypanosoma cruzi Y; type: functional, organism-based
[5] = Cytotoxicity against rhesus monkey LLC-MK2 cells; type: toxicity, cell-based, Macaca mulatta
[6] = Toxicity in CD-1 mouse infected with Trypanosoma cruzi Y trypomastigotes assessed as mortality at 50 mg/kg/day, po pre-infected with parasite followed by compound addition and measured after 15 days relative to control; type: organism-based; settings: in vivo, 360 h, time 15 day
[7] = tested on: Trypanosoma cruzi; test: Trypanocidal activity against Trypanosoma cruzi Tulahuen-2 epimastigotes incubated for 24 hrs by Neubauer chamber method; type: functional, organism-based; settings: Tulahuen-2, 24 h
[8] = tested on: Trypanosoma cruzi; test: Trypanocidal activity against Trypanosoma cruzi NINOA epimastigotes incubated for 24 hrs by Neubauer chamber method; type: functional, organism-based
[9] = tested on: Trypanosoma cruzi; test: Antitrypanosomal activity against Trypanosoma cruzi Tulahuen-2 infected in […] J774 cells assessed as inhibition of parasite proliferation; type: functional, organism-based; settings: Tulahuen-2, J774
[10] = Toxicity in CD-1 mouse infected with Trypanosoma cruzi Y MHOM/MX/1994/NINOA from blood stream trypomastigotes assessed as reduction in parasite growth by measuring lethal concentration; settings: in vivo, 24 h
[11] = Toxicity in CD-1 mouse infected with Trypanosoma cruzi Y MHOM/MX/1994/INC5 from blood stream trypomastigotes assessed as reduction in parasite growth by measuring lethal concentration; settings: in vivo, 24 h
[12] = tested on: Trypanosoma cruzi; test: Anti-trypanosomal activity against Trypanosoma cruzi Y trypomastigotes infected in mouse RAW264.7 cells assessed as inhibition of parasite release measured for 48 hrs; type: functional, organism-based; settings: RAW264.7, 48 h
[13] = tested on: Trypanosoma cruzi; test: Antitrypanosomal activity against bloodstream […] form of Trypanosoma cruzi Y; type: functional, organism-based
[14] = tested on: Trypanosoma cruzi; test: Antitrypanosomal activity against bloodstream trypomastigote form of Trypanosoma cruzi Y assessed as reduction in parasite growth; type: functional, organism-based

SMILES: O=C(Cn1ccnc1[N+](=O)[O-])NCc1ccccc1 [BENZNIDAZOLE]
- IC50 [1]: 34.5 µM
- IC50 [2]: 6.26 µM
- IC50 [3]: 5.64 µM
- IC50 [4]: 91 µM
- CC50 at 48 h [5]: 156 µM
- Activity [6]: 68.3%

SMILES: COc1cc(OC)cc(OC2=C(Oc3cc(OC)cc(OC)c3OC)C(=O)c3ccccc3C2=O)c1
- IC50 [7]: 0.49 µM
- IC50 [8]: 1.3 µM
- IC50 [9]: 43 µM

SMILES: COC(=O)/C=C/c1ccc2c(c1)C(C(=O)OC)C(c1ccc(O)c(OC)c1)O2 (stereo not given)
- IC50 [3]: 7.96 µM
- CC50 at 48 h [5]: 0.86 µM

SMILES: CC1CCc2oc3c(c2C1)C(=O)C(=O)c1ccccc1-3 (stereo not given)
- IC50 [4]: 0.074 µM

SMILES: CCOC(=O)c1csc(N/N=C/c2ccccc2Br)n1
- IC50 [1]: 0.83 µM

SMILES: Fc1c(F)c(F)c(CSc2nc3ccccc3s2)c(F)c1F
- LC50 [10]: 147 µM
- LC50 [11]: 185 µM

SMILES: O=C1c2ccccc2C(=O)N1C/C(=N/NC(=S)Nc1ccccc1)c1ccc(F)cc1
- IC50 [12]: 3.75 µM

SMILES: O=C(Cn1cccc1[N+](=O)[O-])Nc1cccc(C(F)(F)F)c1
- CC50 at 48 h [5]: 2.1 µM

SMILES: CCOC(=O)c1csc(N/N=C/c2cccc(Cl)c2)n1
- IC50 [1]: 4.44 µM

SMILES: NC(=S)N/N=C/c1c(C(F)(F)F)nn(-c2ccccc2)c1-c1ccc(Br)cc1
- IC50 [4]: 30 µM

SMILES: O=C1c2ccccc2C(=O)c2c1oc1c2CCCC1
- IC50 [4]: 0.129 µM

SMILES: O=C(N/N=C/c1ccc(F)cc1)c1ccccc1
- Activity [6]: 46.2%

SMILES: CC1CCc2oc3c(c2C1)C(=O)c1ccccc1C3=O (stereo not given)
- IC50 [4]: 0.031 µM

SMILES: Fc1cccc(F)c1CSc1nc2ccccc2s1
- LC50 [10]: 110 µM
- LC50 [11]: 260 µM

SMILES: CS/C(N)=N\N=C\c1c(C(F)(F)F)nn(-c2ccccc2)c1-c1ccc(Br)cc1
- IC50 [4]: 25.7 µM

SMILES: COc1ccc(-c2c(/C=N/N=C(/N)SC)c(C(F)(F)F)nn2-c2ccccc2)cc1
- IC50 [4]: 19.1 µM

SMILES: CCOC(=O)c1csc(N/N=C(\C)c2ccccc2)n1
- IC50 [1]: 2.83 µM

SMILES: C/C(=N\N=C1\NC(=O)C(c2ccccc2)S1)c1ccc(Cl)cc1Cl (stereo not given)
- IC50 [2]: 1.12 µM

SMILES: Cc1ccc(OC2=C(Br)C(=O)c3ccccc3C2=O)c(C)c1
- IC50 [7]: 0.45 µM
- IC50 [8]: 1.69 µM
- IC50 [9]: 51 µM

SMILES: CC(C)(C)C1CCc2oc3c(c2C1)C(=O)c1ccccc1C3=O (stereo not given)
- IC50 [4]: 0.033 µM

SMILES: Clc1ccc(Nc2cnc3ccccc3c2)cc1
- IC50 [13]: 25.8 µM
- IC50 [4]: > 500 µM
- IC50 [7]: 12 µM

SMILES: c1ccc(CSc2nc3ccccc3s2)cc1
- LC50 [10]: 123 µM
- LC50 [11]: 336 µM

SMILES: Fc1cccc(Nc2cnc3ccccc3c2)c1
- IC50 [13]: 22.8 µM
- IC50 [4]: 420 µM
- IC50 [7]: 13.5 µM

SMILES: CCC1S/C(=N\N=C(/C)c2ccc(Cl)cc2Cl)NC1=O (stereo not given)
- IC50 [2]: 2.57 µM

SMILES: C/C(=N\N=C1/NC(=O)C(c2ccccc2)S1)c1cc(Cl)ccc1Cl (stereo not given)
- IC50 [2]: 0.85 µM

SMILES: NC(=S)N/N=C(\C=C\c1ccc(Cl)cc1)c1ccccc1
- IC50 [3]: 12.2 µM

SMILES: Fc1ccc(Nc2cnc3ccccc3c2)cc1
- IC50 [13]: 10.9 µM
- IC50 [4]: 616 µM
- IC50 [7]: 11.3 µM

SMILES: CCOC(=O)c1csc(N/N=C/c2ccco2)n1
- IC50 [1]: 2.75 µM

SMILES: COc1cccc(/C=C/c2ccc3cccc(O)c3n2)c1CC(=O)O
- EC50 [14]: 36 µM

SMILES: O=C(O)Cc1ccccc1/C=C/c1ccc2cccc(O)c2n1
- EC50 [14]: 40.8 µM

SMILES: O=C1C(=O)c2c(oc3c2CCCC3)-c2ccccc21
- IC50 [4]: 0.064 µM

SMILES: COc1ccc(/C(CN2C(=O)c3ccccc3C2=O)=N\Nc2nc(-c3ccc(OC)cc3)cs2)cc1
- IC50 [12]: 4.48 µM

SMILES: COC(=O)/C=C/c1ccc2c(c1)C(C(=O)OC)C(c1ccc(O)cc1)O2 (stereo not given)
- IC50 [13]: 3.26 µM
- IC50 [3]: 11.9 µM
- CC50 at 48 h [5]: 49.9 µM

SMILES: O=C1c2ccccc2C(=O)N1C/C(=N/NC(=S)Nc1ccccc1)c1ccc(Cl)cc1Cl
- IC50 [12]: 3.6 µM
